This is an account of results in patent US20250170218A1, “STABLE PHARMACEUTICAL COMPOSITION OF RECEPTOR AGONIST, AND PREPARATION METHOD AND APPLICATION THEREOF” (JIANGSU HANSOH PHARMACEUTICAL GROUP CO., LTD., priority 2022, published 2025).

Where two headings read alike, the source gives them in different places. Numbered stars: 1 amine (or outer) side, 2 acyl side, 3 side chain; on linkers, the order of the positions; unused ones are H or OH. Square brackets hold non-standard residues; d marks the D form. Side chains are listed from the residue outwards. Peptide text beside a SMILES is read from it. * marks the point of attachment. ξ: configuration not given here. C20 diacid = O=C(O)CCCCCCCCCCCCCCCCCCC(=O)*; γGlu = O=C(O)[C@H](CCC(=O)[*:2])N[*:1]; AEEA = NCCOCCOCC(=O)O; Aib = CC(C)(N)C(=O)O; ξP = O=C(O)C1CCCN1

Data set [1] in a line: Pharmacokinetic study in cynomolgus monkeys after single subcutaneous or intravenous injection. The format is in vivo. How it is done: The administration doses for 4 groups, i.e., intravenous injection group, low-dose subcutaneous injection group, medium-dose subcutaneous group and high-dose subcutaneous injection group, were 0.1, 0.03, 0.1, and 0.3 mg/kg, respectively, all by single administration.

Data set [2] in a line: Influencing factor test of the bulk drug. It is filed as physicochemical. The note with it: high temperature or illumination.
The conditions of data set [3]: acids, alkalis, oxidation or high temperature.

For `CC[C@H](C)[C@H](NC(=O)[C@H](CCCCN)NC(=O)[C@H](CCC(=O)O)NC(=O)[C@H](CC(C)C)NC(=O)[C@H](Cc1ccc(O)cc1)NC(=O)[C@@H](NC(=O)[C@H](CO)NC(=O)[C@H](Cc1ccc(O)cc1)NC(=O)[C@H](CC(=O)O)NC(=O)[C@H](CO)NC(=O)[C@@H](NC(=O)[C@H](Cc1ccccc1)NC(=O)[C@@H](NC(=O)CNC(=O)[C@H](CCC(=O)O)NC(=O)C(C)(C)NC(=O)[C@@H](N)Cc1ccc(O)cc1)[C@@H](C)O)[C@@H](C)O)[C@@H](C)CC)C(=O)N[C@@H](C)C(=O)N[C@@H](C)C(=O)N[C@@H](CCC(N)=O)C(=O)N[C@@H](CCC(=O)O)C(=O)N[C@@H](Cc1ccccc1)C(=O)N[C@H](C(=O)N[C@@H](CC(N)=O)C(=O)N[C@@H](Cc1c[nH]c2ccccc12)C(=O)N[C@@H](CC(C)C)C(=O)N[C@@H](CC(C)C)C(=O)N[C@@H](C)C(=O)NCC(=O)NCC(=O)N1CCCC1C(=O)N[C@@H](CO)C(=O)N[C@@H](CO)C(=O)NCC(=O)N[C@@H](C)C(=O)N1CCC[C@H]1C(=O)N1CCCC1C(=O)N1CCC[C@H]1C(=O)N[C@@H](CO)C(=O)N[C@@H](CCCCNC(=O)COCCOCCNC(=O)COCCOCCNC(=O)CC[C@H](NC(=O)CCCCCCCCCCCCCCCCCCC(=O)O)C(=O)O)C(N)=O)C(C)C` (some centres unmarked) [Active ingredient] (H-Y[Aib]EGTFTSDYSIYLEKIAAQEFVNWLLAGG[ξP]SSGAP[ξP]PSK([AEEA-AEEA-γGlu-C20 diacid])-NH2), in data set [1], the “exposure (AUClast) in animals of different sexes” value is listed as “no statistical difference”. In addition, in data set [1] (cynomolgus monkey, in vivo, intravenous, 0.1 mg/kg, single, read-out: apparent volume of distribution Vd), the Vd is 0.066 to 0.0681 L/kg. In addition, the clearance in data set [1] (cynomolgus monkey, in vivo, intravenous, 0.1 mg/kg, single, read-out: clearance CL) fell in the range of 21.4 to 22.3 mL/day/kg. Besides, the half-life lay in the range of 50.7 to 51.5 h in data set [1] (cynomolgus monkey, in vivo, intravenous, 0.1 mg/kg, single, read-out: elimination half-life t1/2) and 48.9 to 65.4 h in data set [1] (cynomolgus monkey, in vivo, sc, single subcutaneous injection, read-out: elimination half-life T1/2). For the same molecule, in data set [1] (cynomolgus monkey, in vivo, sc, single subcutaneous injection, read-out: time to peak drug concentration Tmax), the Tmax is 13.3 to 18 h. The “polymer in influencing factor test” value in data set [2] was “polymer growth”. In addition, in data set [3], the “degradation in stressing test” value is recorded as “significant degradations”.
